The target of experiment [1] is Eukaryotic translation initiation factor 2-alpha kinase 1 (Homo sapiens) (UniProt Q9BQI3). The following applies: at 10 µM.
For experiment [2], the target named is Serine/threonine-protein kinase 38-like (Homo sapiens) (UniProt Q9Y2H1). As to the kind of experiment: Selectivity interaction (Ambit KINOMEscan and KiNATiv profiling in Jurkat cells) EUB0000090b STK38L. It is filed as cell-based. The settings on record: at 1 µM.
Experiment [3] has as its target Ribosomal protein S6 kinase alpha-4 (Homo sapiens) (UniProt O75676). The settings on record: at 10 µM.
The target of experiment [4] is Tyrosine-protein kinase BTK (Homo sapiens, UniProt Q06187). As to the kind of experiment: Selectivity interaction (KinomeScan (DiscoverX)) EUB0001049a BTK. The settings on record: at 1 µM.
Experiment [5] deals with T1, Tyrosine-protein kinase JAK3 (Homo sapiens) (UniProt P52333).
T1 sequence (whole entry): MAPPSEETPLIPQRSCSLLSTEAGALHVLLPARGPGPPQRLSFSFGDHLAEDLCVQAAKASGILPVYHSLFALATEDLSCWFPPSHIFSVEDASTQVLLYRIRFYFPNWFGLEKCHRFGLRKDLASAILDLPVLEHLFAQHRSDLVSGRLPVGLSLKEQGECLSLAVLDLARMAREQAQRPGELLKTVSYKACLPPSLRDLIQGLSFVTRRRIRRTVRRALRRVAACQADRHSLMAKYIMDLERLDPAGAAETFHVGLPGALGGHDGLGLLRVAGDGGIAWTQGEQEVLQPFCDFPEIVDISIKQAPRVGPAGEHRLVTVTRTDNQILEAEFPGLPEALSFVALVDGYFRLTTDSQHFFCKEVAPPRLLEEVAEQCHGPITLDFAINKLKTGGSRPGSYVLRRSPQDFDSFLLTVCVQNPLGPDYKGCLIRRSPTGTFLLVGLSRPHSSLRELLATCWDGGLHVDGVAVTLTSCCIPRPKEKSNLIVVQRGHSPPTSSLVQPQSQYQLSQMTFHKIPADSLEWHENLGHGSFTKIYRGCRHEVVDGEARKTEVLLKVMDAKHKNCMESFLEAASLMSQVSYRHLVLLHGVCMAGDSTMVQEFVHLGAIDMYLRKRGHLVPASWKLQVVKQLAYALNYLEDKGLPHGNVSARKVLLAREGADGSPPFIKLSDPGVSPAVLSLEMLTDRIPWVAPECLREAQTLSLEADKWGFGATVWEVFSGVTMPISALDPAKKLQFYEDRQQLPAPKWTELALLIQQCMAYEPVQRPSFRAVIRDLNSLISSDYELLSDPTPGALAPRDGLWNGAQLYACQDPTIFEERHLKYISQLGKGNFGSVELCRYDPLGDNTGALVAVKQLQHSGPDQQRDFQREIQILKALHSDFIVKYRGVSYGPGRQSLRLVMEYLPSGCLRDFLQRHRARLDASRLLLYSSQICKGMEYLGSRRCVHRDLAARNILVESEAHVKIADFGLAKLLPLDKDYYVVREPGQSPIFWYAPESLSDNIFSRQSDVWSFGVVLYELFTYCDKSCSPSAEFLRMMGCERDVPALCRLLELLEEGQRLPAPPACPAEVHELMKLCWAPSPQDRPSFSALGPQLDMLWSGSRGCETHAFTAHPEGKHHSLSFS
As to the kind of experiment: Selectivity interaction (KinomeScan (DiscoverX)) EUB0000695a JAK3. The following applies: at 100 nM.

For experiment [6], the target named is Tyrosine-protein kinase BAZ1B (Homo sapiens) (UniProt Q9UIG0). As to the kind of experiment: Selectivity interaction (Bromodomain panel (DSF asssay)) EUB0000270b BAZ1B.
Experiment [7] deals with T2, NUAK family SNF1-like kinase 2 (Homo sapiens) (UniProt Q9H093).
T2 sequence (whole entry): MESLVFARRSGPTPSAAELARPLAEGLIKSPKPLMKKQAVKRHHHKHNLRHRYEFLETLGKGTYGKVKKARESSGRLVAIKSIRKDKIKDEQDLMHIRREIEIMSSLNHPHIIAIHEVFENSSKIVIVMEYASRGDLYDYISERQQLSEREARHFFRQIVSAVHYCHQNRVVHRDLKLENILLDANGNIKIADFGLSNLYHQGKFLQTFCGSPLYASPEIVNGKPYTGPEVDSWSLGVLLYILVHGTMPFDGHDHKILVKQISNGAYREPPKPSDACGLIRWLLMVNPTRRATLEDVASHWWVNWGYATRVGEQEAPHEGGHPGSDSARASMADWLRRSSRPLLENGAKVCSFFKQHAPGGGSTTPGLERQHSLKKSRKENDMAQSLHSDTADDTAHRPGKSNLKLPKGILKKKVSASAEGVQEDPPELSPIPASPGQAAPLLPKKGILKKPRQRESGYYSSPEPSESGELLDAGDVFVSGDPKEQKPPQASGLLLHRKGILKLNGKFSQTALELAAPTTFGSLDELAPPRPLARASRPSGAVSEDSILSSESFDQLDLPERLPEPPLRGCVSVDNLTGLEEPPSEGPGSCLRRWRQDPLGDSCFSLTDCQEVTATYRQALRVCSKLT
As to the kind of experiment: Selectivity interaction (KinomeScan (DiscoverX)) EUB0000045b NUAK2.

Experiment [8] has as its target Ribosomal protein S6 kinase alpha-6 (Homo sapiens, UniProt Q9UK32). As to the kind of experiment: Selectivity interaction (Kinase panel (Z-LYTE Assay)) EUB0001632a RPS6KA6. The settings on record: at 10 µM.
The target of experiment [9] is Phosphatidylinositol 4,5-bisphosphate 3-kinase catalytic subunit beta isoform (Homo sapiens) (UniProt P42338). As to the kind of experiment: Selectivity interaction (ActivX KiNativ screen (kinase selectivity in THP-1 cell lysates)) EUB0000639a PIK3CB. The experiment is classed as subcellular. The settings on record: lysate.
Experiment [10] concerns the target Cyclin-dependent kinase 13 (Homo sapiens, UniProt Q14004). As to the kind of experiment: Selectivity interaction (KinomeScan (DiscoverX)) EUB0000595a CDK13. The following applies: at 10 µM.
Experiment [11] addresses T3, Serine/threonine-protein kinase STK11 (Homo sapiens) (UniProt Q15831).
T3 sequence (whole entry): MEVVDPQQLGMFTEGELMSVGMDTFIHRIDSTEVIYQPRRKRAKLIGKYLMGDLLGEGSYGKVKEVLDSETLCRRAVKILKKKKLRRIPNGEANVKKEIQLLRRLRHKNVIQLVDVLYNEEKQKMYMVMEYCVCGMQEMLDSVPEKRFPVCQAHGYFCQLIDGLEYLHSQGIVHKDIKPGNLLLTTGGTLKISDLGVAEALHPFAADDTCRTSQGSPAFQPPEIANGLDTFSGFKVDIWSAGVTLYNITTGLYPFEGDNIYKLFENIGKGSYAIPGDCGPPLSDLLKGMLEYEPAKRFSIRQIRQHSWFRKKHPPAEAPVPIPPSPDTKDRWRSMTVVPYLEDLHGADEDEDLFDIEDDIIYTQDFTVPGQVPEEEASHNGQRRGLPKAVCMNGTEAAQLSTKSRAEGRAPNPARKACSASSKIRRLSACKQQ
Put plainly: Selectivity interaction (ActivX KiNativ screen (ex vivo kinase selectivity in human PBMCs)) EUB0001619a STK11. The following applies: PBMC, at 1 µM. It is filed as cell-based.

Phosphatidylinositol 4,5-bisphosphate 3-kinase catalytic subunit beta isoform (Homo sapiens), sequence (P42338 whole entry, looked up, canonical isoform): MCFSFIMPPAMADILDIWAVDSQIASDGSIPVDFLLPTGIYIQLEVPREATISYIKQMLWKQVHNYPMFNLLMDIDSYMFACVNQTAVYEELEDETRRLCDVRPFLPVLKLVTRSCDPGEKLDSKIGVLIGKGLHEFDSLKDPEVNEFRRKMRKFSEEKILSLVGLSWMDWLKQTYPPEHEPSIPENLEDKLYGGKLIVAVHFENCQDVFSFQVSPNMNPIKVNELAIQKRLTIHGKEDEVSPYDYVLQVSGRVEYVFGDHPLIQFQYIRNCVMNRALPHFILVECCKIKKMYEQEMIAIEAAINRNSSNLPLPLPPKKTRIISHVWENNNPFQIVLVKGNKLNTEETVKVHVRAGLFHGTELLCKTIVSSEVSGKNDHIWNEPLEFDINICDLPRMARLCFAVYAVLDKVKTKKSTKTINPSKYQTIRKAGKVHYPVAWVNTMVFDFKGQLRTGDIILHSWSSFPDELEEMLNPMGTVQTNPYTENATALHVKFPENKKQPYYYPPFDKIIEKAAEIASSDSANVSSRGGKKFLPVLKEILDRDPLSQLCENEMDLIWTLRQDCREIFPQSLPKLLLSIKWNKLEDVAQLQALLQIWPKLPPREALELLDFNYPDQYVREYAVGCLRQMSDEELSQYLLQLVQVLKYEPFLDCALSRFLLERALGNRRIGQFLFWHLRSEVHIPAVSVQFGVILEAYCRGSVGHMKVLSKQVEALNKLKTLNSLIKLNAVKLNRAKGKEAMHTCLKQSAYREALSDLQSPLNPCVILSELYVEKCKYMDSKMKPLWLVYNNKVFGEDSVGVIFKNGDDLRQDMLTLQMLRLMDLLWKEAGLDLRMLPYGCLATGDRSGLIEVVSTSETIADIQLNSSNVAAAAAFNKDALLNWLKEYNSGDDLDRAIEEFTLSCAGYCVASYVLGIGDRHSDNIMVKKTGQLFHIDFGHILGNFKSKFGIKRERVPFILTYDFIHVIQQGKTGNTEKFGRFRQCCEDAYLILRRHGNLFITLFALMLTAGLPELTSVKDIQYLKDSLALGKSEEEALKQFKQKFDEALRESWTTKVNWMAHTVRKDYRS
Eukaryotic translation initiation factor 2-alpha kinase 1 (Homo sapiens), sequence (Q9BQI3 whole entry): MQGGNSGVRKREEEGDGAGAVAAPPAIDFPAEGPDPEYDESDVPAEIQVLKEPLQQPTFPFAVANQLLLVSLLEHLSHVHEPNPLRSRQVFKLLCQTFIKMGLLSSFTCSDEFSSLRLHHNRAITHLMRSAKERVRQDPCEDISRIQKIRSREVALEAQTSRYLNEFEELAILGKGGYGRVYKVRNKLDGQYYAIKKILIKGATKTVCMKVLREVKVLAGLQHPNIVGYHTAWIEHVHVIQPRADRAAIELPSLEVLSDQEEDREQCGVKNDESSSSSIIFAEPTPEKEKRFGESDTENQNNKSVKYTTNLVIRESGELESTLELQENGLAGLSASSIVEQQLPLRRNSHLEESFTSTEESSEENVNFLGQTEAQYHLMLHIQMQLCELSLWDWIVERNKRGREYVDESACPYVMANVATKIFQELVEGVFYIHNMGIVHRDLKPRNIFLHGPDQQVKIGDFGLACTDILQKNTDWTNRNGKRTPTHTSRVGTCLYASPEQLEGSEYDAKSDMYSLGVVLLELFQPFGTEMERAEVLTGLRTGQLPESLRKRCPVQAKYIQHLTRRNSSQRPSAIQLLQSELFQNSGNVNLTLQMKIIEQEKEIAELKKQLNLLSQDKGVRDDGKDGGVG
Ribosomal protein S6 kinase alpha-4 (Homo sapiens), sequence (O75676 whole entry, looked up): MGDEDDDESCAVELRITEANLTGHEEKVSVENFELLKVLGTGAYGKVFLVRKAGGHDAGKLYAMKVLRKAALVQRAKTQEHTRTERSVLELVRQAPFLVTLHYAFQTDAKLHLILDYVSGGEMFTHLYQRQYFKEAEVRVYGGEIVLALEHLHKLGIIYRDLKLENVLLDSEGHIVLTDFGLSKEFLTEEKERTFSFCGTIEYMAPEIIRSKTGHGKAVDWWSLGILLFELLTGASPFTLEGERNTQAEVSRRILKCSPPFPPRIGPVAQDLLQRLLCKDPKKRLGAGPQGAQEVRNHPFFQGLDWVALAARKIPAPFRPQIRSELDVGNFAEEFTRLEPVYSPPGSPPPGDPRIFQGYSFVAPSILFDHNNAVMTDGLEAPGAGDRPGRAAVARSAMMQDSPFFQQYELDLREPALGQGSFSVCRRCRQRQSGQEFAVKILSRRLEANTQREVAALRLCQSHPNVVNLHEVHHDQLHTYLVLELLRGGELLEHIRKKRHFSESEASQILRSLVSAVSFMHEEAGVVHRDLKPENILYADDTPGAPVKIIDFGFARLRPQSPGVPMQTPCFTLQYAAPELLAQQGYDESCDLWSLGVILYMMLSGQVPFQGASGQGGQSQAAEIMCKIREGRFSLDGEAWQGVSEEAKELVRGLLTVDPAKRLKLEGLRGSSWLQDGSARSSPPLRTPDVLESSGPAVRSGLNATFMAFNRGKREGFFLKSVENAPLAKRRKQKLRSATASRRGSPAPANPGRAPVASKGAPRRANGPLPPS
Tyrosine-protein kinase BAZ1B (Homo sapiens), sequence (Q9UIG0 whole entry): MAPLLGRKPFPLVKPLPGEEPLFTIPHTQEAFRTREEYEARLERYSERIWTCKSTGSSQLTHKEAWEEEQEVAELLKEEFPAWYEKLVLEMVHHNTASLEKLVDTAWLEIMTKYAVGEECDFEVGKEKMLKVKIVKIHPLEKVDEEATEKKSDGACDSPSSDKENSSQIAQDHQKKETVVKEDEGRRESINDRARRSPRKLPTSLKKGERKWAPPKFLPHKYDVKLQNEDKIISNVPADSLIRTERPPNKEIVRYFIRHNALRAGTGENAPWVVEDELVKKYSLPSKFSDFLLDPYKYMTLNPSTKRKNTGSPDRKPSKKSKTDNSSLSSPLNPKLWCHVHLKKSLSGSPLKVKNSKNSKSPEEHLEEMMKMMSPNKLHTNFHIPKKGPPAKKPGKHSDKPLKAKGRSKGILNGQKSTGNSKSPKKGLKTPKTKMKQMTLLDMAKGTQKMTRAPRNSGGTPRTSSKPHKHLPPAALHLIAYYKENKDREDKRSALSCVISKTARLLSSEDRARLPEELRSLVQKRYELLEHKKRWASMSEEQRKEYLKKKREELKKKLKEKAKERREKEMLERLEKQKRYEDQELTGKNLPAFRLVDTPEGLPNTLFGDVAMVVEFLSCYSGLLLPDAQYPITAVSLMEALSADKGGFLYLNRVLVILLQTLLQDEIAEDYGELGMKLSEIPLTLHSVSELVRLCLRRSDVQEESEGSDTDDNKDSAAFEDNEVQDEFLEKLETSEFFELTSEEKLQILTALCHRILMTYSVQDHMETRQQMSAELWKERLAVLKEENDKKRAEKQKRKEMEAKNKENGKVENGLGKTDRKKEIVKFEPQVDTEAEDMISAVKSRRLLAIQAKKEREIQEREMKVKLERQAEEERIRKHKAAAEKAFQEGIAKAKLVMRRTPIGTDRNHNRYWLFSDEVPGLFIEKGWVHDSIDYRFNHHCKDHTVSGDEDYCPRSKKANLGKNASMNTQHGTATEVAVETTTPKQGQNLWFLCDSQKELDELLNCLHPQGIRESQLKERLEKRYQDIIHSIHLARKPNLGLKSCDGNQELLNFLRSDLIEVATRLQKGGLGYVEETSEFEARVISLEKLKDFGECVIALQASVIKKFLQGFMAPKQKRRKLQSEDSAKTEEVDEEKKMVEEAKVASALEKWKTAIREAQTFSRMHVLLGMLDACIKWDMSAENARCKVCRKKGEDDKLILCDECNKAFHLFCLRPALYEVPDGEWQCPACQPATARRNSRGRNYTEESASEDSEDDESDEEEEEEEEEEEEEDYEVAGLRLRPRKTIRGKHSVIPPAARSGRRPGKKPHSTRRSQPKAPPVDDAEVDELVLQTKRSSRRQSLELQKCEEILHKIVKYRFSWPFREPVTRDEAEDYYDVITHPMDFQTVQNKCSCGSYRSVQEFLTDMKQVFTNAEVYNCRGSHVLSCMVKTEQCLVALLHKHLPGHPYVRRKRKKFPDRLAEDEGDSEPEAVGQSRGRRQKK
Tyrosine-protein kinase BTK, sequence (Q06187 whole entry): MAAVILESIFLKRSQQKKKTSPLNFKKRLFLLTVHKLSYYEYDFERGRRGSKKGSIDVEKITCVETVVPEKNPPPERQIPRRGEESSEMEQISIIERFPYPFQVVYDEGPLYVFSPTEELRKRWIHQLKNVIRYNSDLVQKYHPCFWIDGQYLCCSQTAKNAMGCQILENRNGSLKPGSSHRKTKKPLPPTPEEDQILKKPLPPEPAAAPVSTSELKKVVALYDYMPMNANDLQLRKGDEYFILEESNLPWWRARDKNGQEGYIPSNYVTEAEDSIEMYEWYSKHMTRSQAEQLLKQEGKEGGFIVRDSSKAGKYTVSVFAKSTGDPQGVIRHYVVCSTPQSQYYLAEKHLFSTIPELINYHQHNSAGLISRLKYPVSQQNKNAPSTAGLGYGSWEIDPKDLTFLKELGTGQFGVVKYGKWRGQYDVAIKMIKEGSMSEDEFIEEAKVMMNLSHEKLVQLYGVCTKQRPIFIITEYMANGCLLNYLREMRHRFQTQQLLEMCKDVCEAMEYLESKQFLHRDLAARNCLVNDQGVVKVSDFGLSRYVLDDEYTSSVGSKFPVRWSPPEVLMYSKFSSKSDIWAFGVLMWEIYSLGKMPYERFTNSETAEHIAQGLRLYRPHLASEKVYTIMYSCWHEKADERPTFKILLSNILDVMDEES
Serine/threonine-protein kinase 38-like (Homo sapiens), sequence (Q9Y2H1 2-464 limits assumed): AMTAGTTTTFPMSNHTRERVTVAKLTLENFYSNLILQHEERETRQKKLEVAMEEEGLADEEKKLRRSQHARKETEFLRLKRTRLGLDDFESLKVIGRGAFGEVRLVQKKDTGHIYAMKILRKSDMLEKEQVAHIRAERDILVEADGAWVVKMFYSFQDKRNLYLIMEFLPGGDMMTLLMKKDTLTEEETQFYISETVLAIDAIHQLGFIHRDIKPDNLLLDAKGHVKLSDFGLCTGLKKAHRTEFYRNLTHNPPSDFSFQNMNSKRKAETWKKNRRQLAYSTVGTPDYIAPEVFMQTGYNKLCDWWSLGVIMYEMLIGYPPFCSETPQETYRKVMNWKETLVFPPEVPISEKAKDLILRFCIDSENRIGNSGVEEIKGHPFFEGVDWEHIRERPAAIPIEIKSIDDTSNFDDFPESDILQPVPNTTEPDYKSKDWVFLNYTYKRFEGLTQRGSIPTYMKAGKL

`Cc1cc([C@@H](C)Nc2ccccc2C(=O)O)c2nc(N3CCOCC3)cc(=O)n2c1` [AZD-6482]: the % of control in experiment [1] is 97%.
With `CN(C)C/C=C/C(=O)Nc1ccc(C(=O)N2CCCC(Nc3ncc(Cl)c(-c4c[nH]c5ccccc45)n3)C2)cc1` (stereo unspecified), the % of control in experiment [2] worked out at 82%.
`CCN(CC)CCCCNc1ncc2cc(-c3cc(OC)cc(OC)c3)c(NC(=O)NC(C)(C)C)nc2n1` showed a % of control in experiment [3] of 100%.
For the compound `COc1cc(Nc2nc(C)cc(-c3cnn4nc(OC)ccc34)n2)cc(C(F)(F)F)c1`, the % of control in experiment [4] was 87%.
As for `Cc1cc(F)c(C(=O)Nc2cccc(-c3nncn3C(C)C)n2)cc1-n1cnc(C2CC2)c1`, the % of control in experiment [5] stood at 100%.
As for `Cc1cc(CN)cc(C)c1-c1ncn(C)c1-c1cncn1C`, the dTM in [6] is -1.22 K.
On to `C=CC(=O)Nc1cc(-n2c(=O)ccc3cnc4ccc(-c5ccc(NS(C)(=O)=O)cc5)cc4c32)ccc1C`, for which the % of control in experiment [7] (at 1 µM) and in experiment [7] (at 10 µM) was 100% each time.
`Cn1cc(-n2cnc3c(NCc4nc5cc(Cl)c(Cl)cc5[nH]4)nc(N4CCOCC4)nc32)cn1` returned a % of control in [8] of 9.97%.
Take `CC[C@@H]1[C@H](F)C(=O)N[C@@H]1COc1nccc2cc(C(N)=O)c(OC)cc12` [ZIMLOVISERTIB]: the % of inhibition in experiment [9] (at 0.01 µM) was -2.4%; in experiment [9] (at 0.04 µM) it was 1.2%; in [9] (at 0.2 µM), -29.5%; in experiment [9] (at 1 µM), -29%; in [9] (at 5 µM), 14.7%.
In [10], `COCC(=O)NC/C=C/c1ccc2ncnc(Nc3ccc(Oc4ccc(C)nc4)c(C)c3)c2c1` [CP-724714] registered a % of control of 100%.
As for `N#Cc1cccc(-c2c[nH]c3ncnc(N4CCOCC4)c23)c1`, in [11], the % of inhibition was 17%.

The values above are taken from ChEMBL document CHEMBL5465560, “Selectivity Literature for EUbOPEN Chemogenomic Library” (2024).
